Here are results for 48 molecules from patent US9556159B2, “Renin inhibitor” (MITSUBISHI TANABE PHARMA CORPORATION, priority 2012, dated 2017).

The IC50 is the concentration needed to halve the response being measured.

The target in this experiment is T1, Recombinant human renin (Homo sapiens, UniProt P00797).
T1 sequence (P00797 67-406): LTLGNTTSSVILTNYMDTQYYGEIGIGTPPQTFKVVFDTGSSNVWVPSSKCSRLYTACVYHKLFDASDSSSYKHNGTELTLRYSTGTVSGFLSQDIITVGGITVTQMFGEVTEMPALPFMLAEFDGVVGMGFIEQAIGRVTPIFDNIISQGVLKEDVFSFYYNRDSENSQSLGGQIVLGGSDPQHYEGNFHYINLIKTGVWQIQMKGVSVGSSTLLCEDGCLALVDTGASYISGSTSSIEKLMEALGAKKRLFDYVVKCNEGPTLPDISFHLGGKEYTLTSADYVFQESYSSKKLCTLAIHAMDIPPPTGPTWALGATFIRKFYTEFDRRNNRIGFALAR
Description: Inhibitory activity against human renin (fluorogenic peptide substrate). The class given is biochemical. The conditions noted are these: 50% inhibitory concentration (IC50) against human renin, 37° C. for 1 hour.
On to `COC[C@@H]1CNC[C@H](C(=O)N(C2CC2)[C@H](C)c2cc(OC)nc(CCCNC(=O)OC)n2)O1` [Example 386], for which the IC50 came to 3.2 nM.

Turning to `COC(=O)NCCCn1nc([C@@H](C)N(C(=O)[C@H]2CNCCO2)C2CC2)cc1C(C)(C)c1ccccc1` [Example 387], the IC50 was 4.4 nM.

`CCc1nc([C@@H](C)N(C(=O)[C@H]2CNCCO2)C2CC2)cc2c1ncn2CCCOC` [Example 388]: the IC50 was 1.8 nM.

As to `CCc1nc([C@@H](C)N(C(=O)[C@H]2CN[C@@H](C)CO2)C2CC2)cc2c1ncn2CCCOC` [Example 389], the IC50 is 6.1 nM.

Regarding `COC(=O)NCCCn1nc([C@@H](C)N(C(=O)[C@H]2CNC[C@@H](C)O2)C2CC2)cc1C(C)(C)c1ccccc1` [Example 390], the concentration for half-maximal inhibition (IC50) came out at 3.5 nM.

Take `CCOc1ncc([C@@H](C)N(C(=O)[C@H]2CNCCO2)C2CC2)nc1CCCNC(=O)OC` [Example 391]: the concentration for half-maximal inhibition (IC50) amounted to 2 nM.

On to `CCc1nc([C@@H](C)N(C(=O)[C@H]2CNC[C@@H](C)O2)C2CC2)cc2c1ncn2CCCOC` [Example 392], for which the IC50 stood at 0.7 nM.

Consider `CCc1nc([C@@H](C)N(C(=O)[C@H]2CN[C@@H](COC)CO2)C2CC2)cc2c1ncn2CCCOC` [Example 393], for which the half-inhibitory concentration (IC50) turned out to be 3.7 nM.

Regarding `CCc1nc([C@@H](C)N(C(=O)[C@H]2CNC[C@@H](COC)O2)C2CC2)cc2c1ncn2CCCOC` [Example 394], the 50% inhibitory concentration (IC50) was determined as 0.6 nM.

For the molecule `CCOc1ncc(C(C)N(C(=O)[C@H]2CNC[C@@H](C)O2)C2CC2)nc1CCCNC(=O)OC` (stereo partly drawn) [Example 395], the 50% inhibitory concentration (IC50) stood at 3.5 nM.

Turning to `COC(=O)NCCCc1cc(C(C)N(C(=O)[C@H]2CNCCO2)C2CC2)sc1C1CC1` (stereo partly drawn) [Example 396], the 50% inhibitory concentration (IC50) was 4.8 nM.

In the case of `CCc1nc([C@H](C)N(C(=O)[C@H]2CN[C@@H](C)CO2)C2CC2)cc2c1ccn2CCCOC` [Example 397], the IC50 was 1.3 nM.

Turning to `CCOc1ncc(C(C)N(C(=O)[C@H]2CNC[C@@H](COC)O2)C2CC2)nc1CCCNC(=O)OC` (stereo partly drawn) [Example 398], the IC50 is 5.1 nM.

In the case of `CCc1cc(CCCNC(=O)OC)nc([C@@H](C)N(C(=O)[C@H]2CNCCO2)C2CC2)n1` [Example 399], the IC50 is 4 nM.

As for `COC(=O)NCCCc1nc([C@@H](C)N(C(=O)[C@H]2CNCCO2)C2CC2)sc1-c1cccc(F)c1` [Example 400], the 50% inhibitory concentration (IC50) amounted to 2.3 nM.

Take `C=C(c1sc([C@@H](C)N(C(=O)[C@H]2CNCCO2)C2CC2)cc1CCCNC(=O)OC)C(F)(F)F` [Example 401]: the IC50 was found to be 2.7 nM.

For the molecule `COC(=O)NCCCc1nc([C@H](C)N(C(=O)[C@H]2CNCCO2)C2CC2)sc1-c1ccc(F)cc1` [Example 402], the IC50 is 2.3 nM.

For `COC(=O)NCCCc1nc(C(C)N(C(=O)[C@H]2CNCCO2)C2CC2)sc1-c1cccnc1` (stereo partly drawn) [Example 403], the IC50 was 3.1 nM.

On to `COC(=O)NCCCn1cc([C@@H](C)N(C(=O)[C@H]2CNC[C@@H](CF)O2)C2CC2)nc1C1CCOCC1` [Example 404], for which the IC50 turned out to be 0.7 nM.

Consider `COC(=O)NCCCc1cc(C(C)N(C(=O)[C@H]2CNCCO2)C2CC2)sc1C(C)C(F)(F)F` (stereo partly drawn) [Example 405], for which the concentration for half-maximal inhibition (IC50) came to 3.9 nM.

With `COC(=O)NCCCc1sc(C(C)N(C(=O)[C@H]2CNCCO2)C2CC2)cc1-c1ccccc1F` (stereo partly drawn) [Example 406], the half-inhibitory concentration (IC50) came out at 3.4 nM.

On to `COC(=O)NCCCc1nc([C@@H](C)N(C(=O)[C@H]2CNCCO2)C2CC2)sc1-c1ccnc(C)c1` [Example 407], for which the concentration for half-maximal inhibition (IC50) worked out at 1.7 nM.

As to `COC(=O)NCCCc1nc([C@@H](C)N(C(=O)[C@H]2CNCCO2)C2CC2)sc1-c1ccc(C)nc1` [Example 408], the half-maximal inhibitory concentration (IC50) turned out to be 1.1 nM.

For `COC(=O)NCCCc1cc([C@@H](C)N(C(=O)[C@H]2CNCCO2)C2CC2)sc1-c1cnc(N)nc1` [Example 409], the half-maximal inhibitory concentration (IC50) turned out to be 1 nM.

`COC(=O)NCCCc1cc(C(C)N(C(=O)[C@H]2CNCCO2)C2CC2)sc1-c1cnc2[nH]ccc2c1` (stereo partly drawn) [Example 410]: the IC50 was 6.7 nM.

In the case of `C=C(C)c1sc(C(C)N(C(=O)[C@H]2CNCCO2)C2CC2)cc1CCCNC(=O)OC` (stereo partly drawn) [Example 411], the concentration for half-maximal inhibition (IC50) came to 2.2 nM.

For the molecule `COC(=O)NCCCc1cc([C@@H](C)N(C(=O)[C@H]2CNCCO2)C2CC2)sc1-c1cnc(N)nc1` [Example 412], the IC50 worked out at 0.6 nM.

For `COC(=O)NCCCc1nc([C@@H](C)N(C(=O)[C@H]2CNCCO2)C2CC2)sc1-c1cnn(C)c1` [Example 413], the IC50 came out at 2 nM.

Turning to `COC(=O)NCCCc1nc([C@@H](C)N(C(=O)[C@H]2CNCCO2)C2CC2)sc1-c1ccccc1C(=O)OC` [Example 414], the IC50 came out at 2.8 nM.

Turning to `COC(=O)NCCCc1nc([C@@H](C)N(C(=O)[C@H]2CNCCO2)C2CC2)sc1-c1ccnn1C` [Example 415], the IC50 is 0.6 nM.

On to `COC(=O)NCCCc1nc([C@@H](C)N(C(=O)[C@H]2CNCCO2)C2CC2)sc1-c1cncnc1` [Example 416], for which the concentration for half-maximal inhibition (IC50) stood at 3 nM.

For `COC(=O)NCCCc1nc([C@@H](C)N(C(=O)[C@H]2CNCCO2)C2CC2)sc1-c1ccccc1F` [Example 417], the half-maximal inhibitory concentration (IC50) turned out to be 3.4 nM.

As for `COC(=O)NCCCc1cc(C(C)N(C(=O)[C@H]2CNCCO2)C2CC2)sc1C(C)C` (stereo partly drawn) [Example 418], the concentration for half-maximal inhibition (IC50) turned out to be 3.9 nM.

For `COC(=O)NCCCc1cc(C(C)N(C(=O)[C@H]2CNCCO2)C2CC2)sc1C1CCOCC1` (stereo partly drawn) [Example 419], the half-inhibitory concentration (IC50) turned out to be 1.4 nM.

Consider `COC(=O)NCCCc1cc(C(C)N(C(=O)[C@H]2CNCCO2)C2CC2)sc1C(C)CO` (stereo partly drawn) [Example 420], for which the IC50 was found to be 2.7 nM.

Take `COC(=O)NCCCc1nc([C@@H](C)N(C(=O)[C@H]2CNCCO2)C2CC2)sc1-c1cn[nH]c1` [Example 421]: the half-inhibitory concentration (IC50) came to 2.2 nM.

Consider `COC(=O)NCCCc1cc(C(C)N(C(=O)[C@H]2CNCCO2)C2CC2)sc1-c1cccnc1N` (stereo partly drawn) [Example 422], for which the IC50 came to 1.7 nM.

Consider `COC(=O)NCCCc1cc([C@@H](C)N(C(=O)[C@H]2CNCCO2)C2CC2)sc1C#CC(C)(C)O` [Example 423], for which the IC50 was found to be 1 nM.

`COC(=O)NCCCc1nc([C@@H](C)N(C(=O)[C@H]2CNCCO2)C2CC2)cnc1O[C@H]1CCOC1` [Example 424]: the half-maximal inhibitory concentration (IC50) came to 5 nM.

`COC(=O)NCCCc1cc(C(C)N(C(=O)[C@H]2CNCCO2)C2CC2)sc1-c1ccc(N)nc1` (stereo partly drawn) [Example 425]: the IC50 stood at 8.8 nM.

As to `COC(=O)NCCCc1cc([C@H](C)N(C(=O)[C@H]2CNCCO2)C2CC2)sc1-c1ccnn1C` [Example 427], the 50% inhibitory concentration (IC50) is 3.5 nM.

Regarding `COC(=O)NCCCc1sc([C@@H](C)N(C(=O)[C@H]2CNCCO2)C2CC2)cc1-c1ccc(F)cc1` [Example 428], the IC50 amounted to 8.1 nM.

In the case of `COC(=O)NCCCc1sc(C(C)N(C(=O)[C@H]2CNCCO2)C2CC2)cc1-c1ccnn1C` (stereo partly drawn) [Example 429], the IC50 amounted to 2 nM.

For `COC(=O)NCCCc1sc(C(C)N(C(=O)[C@H]2CNCCO2)C2CC2)cc1-c1cccnc1` (stereo partly drawn) [Example 430], the IC50 came out at 2.4 nM.

Turning to `COC(=O)NCCCc1sc([C@H](C)N(C(=O)[C@H]2CNCCO2)C2CC2)cc1-c1cnc(N)nc1` [Example 431], the IC50 came to 3.8 nM.

For the molecule `COC(=O)NCCCc1sc([C@@H](C)N(C(=O)[C@H]2CNCCO2)C2CC2)cc1-c1cnc(N)nc1` [Example 432], the 50% inhibitory concentration (IC50) stood at 3.3 nM.

Take `COC(=O)NCCCc1nc([C@@H](C)N(C(=O)[C@H]2CNCCO2)C2CC2)cnc1O[C@@H]1CCOC1` [Example 433]: the IC50 is 5.3 nM.

Take `COC(=O)NCCCc1sc([C@@H](C)N(C(=O)[C@H]2CNCCO2)C2CC2)cc1-c1ccccc1C(=O)OC` [Example 434]: the IC50 was 2 nM.
